Entries after “also recorded” stand apart in the source; their conditions may differ.
What was measured:
BACE1 = target: T1, BACE1 (Mus musculus, UniProt P56818); assay: Sandwich ELISA of BACE1 activity in mAPP N2a cells; assay type: cell-based; conditions: mAPP cells treated with ligand 1 relative to untreated mAPP cells; P=0.001
T1 construct: endogenous in cells; host or cells: N2a mouse neuroblastoma cells (ATCC) transfected with mutant APP Swe/Ind cDNA
Excerpt: ELISA Ligand based inhibition of BACE1 activity, Aβ 40 and 42. BACE1 activity, Levels of Aβ40 and 42. To determine whether ligand 1 lowers BACE1 activity and reducing the Aβ40 and Aβ42 levels, the inventors measured BACE1 activity, Aβ40 and Aβ42 levels in mutant APP cells (N2a+mutant cDNA transfected) treated with ligand 1 using Sandwich ELISA.
The N2a cells grown for 6 days in a serum-free medium (1:1 mixture of DMEM and OptiMEM, plus penicillin and streptomycin (Invitrogen, Carlsbad, CA, USA) until the cells developed neuronal processes. As shown in (FIG. 10), these cells were used for 4 groups—one control group and 3 treatment groups. 1) untreated N2a cells (the control group), 2) N2a cells treated with ligand 1 (N2a+ligand 1), 3) N2a cells transfected mAPP with the (lipofectamine) (20 μM final concentration for 6 hrs (mAPP), 4) N2a cells transfected with mAPP cDNA for 6 hrs, treated with ligand 1 (mAPP+ligand 1 treatment group), N2a cells treated with ligand 1 for 24 hrs and then treated with the mAPP cDNA for 6 hrs (ligand 1+mAPP treatment group). […]
ELISA Ligand based BACE1 inhibition of Aβ 40 and 42. […] For each sample, Aβ1-40 and Aβ1-42 were measured with commercial colorimetric ELISA kits (Biosource International, Camarillo, CA, USA) specific for human. […] Protein concentrations of the homogenates were determined following the […], and Aβ was expressed as pg Aβ/mg protein.

[1] = tested on: mAPP transfected N2a cells; assay: Cell viability / apoptotic cell death in mAPP transfected N2a cells; assay type: cell-based, mouse
Procedure: The N2a cells grown for 6 days in a serum-free medium (1:1 mixture of DMEM and OptiMEM, plus penicillin and streptomycin (Invitrogen, Carlsbad, CA, USA) until the cells developed neuronal processes. As shown in (FIG. 10), these cells were used for 4 groups—one control group and 3 treatment groups. 1) untreated N2a cells (the control group), 2) N2a cells treated with ligand 1 (N2a+ligand 1), 3) N2a cells transfected mAPP with the (lipofectamine) (20 μM final concentration for 6 hrs (mAPP), 4) N2a cells transfected with mAPP cDNA for 6 hrs, treated with ligand 1 (mAPP+ligand 1 treatment group), N2a cells treated with ligand 1 for 24 hrs and then treated with the mAPP cDNA for 6 hrs (ligand 1+mAPP treatment group). As shown in (FIG. 10), the inventors performed 4 independent cell cultures and treatments for all experiments (n=4).
Cell viability and apoptotic cell death MTT assay. Ligand 1 treated N2a cells, cell based apoptosis assay was performed using Cellometer Vision CBA Image Cytometry System (Nexcelom Bioscience LLC, Lawrence, MA) with two fluorophore Annexin V-FITC and Propidium Iodide (PI) staining solution, according to manufacturer's instructions. Briefly, cells were harvested using trypsin, then spin down at 300 g for three minutes and pellets were washed with 1×PBS, cells were counted using hematocytometer. […]

mAPP N2a cells = assay: Immunofluorescence analysis of BACE1, 6E10 and CTF; assay type: cell-based, mouse; conditions: ligand 1-treated mAPP N2a cells relative to untreated mAPP N2a cells, P=0.01
Procedure: Immunofluorescence analysis of BACE1, 6E10 and CTF. To determine the effect of ligand 1 on BACE1, 6E10 and C-terminal fragments, immunofluorescence analysis was performed on four different groups of cells: 1) untreated N2a cells versus; 2) N2a+ligand 1; 3); cells transfected with mAPP and 4) mAPP+ligand 1.
Immunofluorescence analysis of BACE1, 6E10 and CTF. To determine BACE1, 6E10, CTF inhibition, mitochondrial network, immunofluorescence analysis was performed using mutant AβPP cells and untransfected N2a and TOM20 antibody as described in (35). The fixed cells were washed with warm PBS, fixed in freshly prepared 4% paraformaldehyde in PBS for 10 minutes, then washed with PBS and permeabilized with 0.1% Triton-X100 in PBS. They were blocked with a 1% blocking solution (Invitrogen) for 1 hour at room temperature. All sections were incubated overnight with TOM20 antibody (1:250 dilution). After incubation, the cells were washed 3 times with PBS, for 10 minutes each. The cells were incubated with a secondary antibody conjugated with Fluor 488 (Invitrogen) for 1 hour at room temperature. The cells were washed 3 times with PBS and mounted on slides. Photographs were taken with a multiphoton laser scanning microscope system (ZeissMeta LSM510). To quantify the immunoreactivity of TOM20 antibody for each treatment, 10-15 photographs were taken at ×40 magnifications, and statistical significance was assessed, using one-way ANOVA for TOM20 protein.

N2a cells = assay: Transmission electron microscopy of mitochondrial number and length; assay type: cell-based, mouse; conditions: TEM
Excerpt: Transmission electron microscopy. To determine the effects of ligand 1 on the number and length of mitochondria, the inventors used transmission electron microscopy on cells with untreated N2a cells, […], mAPP, and mAPP+ligand 1.
Transmission electron microscopy of mitochondria. To determine the protective effects ligand 1 the number and morphology of mitochondria and the rescue effects of Ligand 1, on Aβ induced mitochondrial toxicity. The inventors conducted transmission electron microscopy (TEM) of N2a cells from control and experimental treatments (n=4). Treated and untreated N2a cells were fixed in 100 mM sodium cacodylate (pH 7.2), 2.5% glutaraldehyde, 1.6% paraformaldehyde, 0.064% picric acid, and 0.1% ruthenium red. They were gently washed and post-fixed for 1 hr in 1% osmium tetroxide plus […] potassium ferricyanide, in 100 mM sodium cacodylate, pH 7.2. After a thorough rinsing in water, the N2a cells were dehydrated, infiltrated overnight in 1:1 acetone:Epon 812, infiltrated for 1 hr with 100% Epon 812 resin, and embedded in the resin. After polymerization, 60- to 80-nm thin sections were cut on a Reichert ultramicrotome and stained for 5 min in lead citrate. […] The numbers of mitochondria were counted in the control N2a cells (number of cells=50) and experimental groups (number of cells per group=40), and statistical significance was determined, using one-way ANOVA.

T1 sequence (P56818 46-501): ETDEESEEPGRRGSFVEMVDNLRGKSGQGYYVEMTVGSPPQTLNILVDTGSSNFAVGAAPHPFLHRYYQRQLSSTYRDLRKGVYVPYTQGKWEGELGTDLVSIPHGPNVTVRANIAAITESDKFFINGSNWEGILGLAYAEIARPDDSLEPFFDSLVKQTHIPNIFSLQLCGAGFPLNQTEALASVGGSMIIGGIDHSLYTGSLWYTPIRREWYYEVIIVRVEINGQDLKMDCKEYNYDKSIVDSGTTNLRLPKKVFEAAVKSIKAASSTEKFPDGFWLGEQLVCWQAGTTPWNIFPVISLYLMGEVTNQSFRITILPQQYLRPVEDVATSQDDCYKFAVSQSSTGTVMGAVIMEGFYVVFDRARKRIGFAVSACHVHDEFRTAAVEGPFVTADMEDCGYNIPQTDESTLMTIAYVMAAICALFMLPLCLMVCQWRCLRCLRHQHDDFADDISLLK

[(6As,8S,10aS,12aS)-10a, 12a-dimethyl-2-oxo-3,4,4a,4b,5,6,6a,7,8,9,10,10b,11,12-tetradecahydro-1H-naphtho[2,1-f]quinolin-8-yl] 4-[4-[bis(2-chloroethyl)amino]phenyl]butanoate [Ligand 1]
BACE1 activity (BACE1): significantly lower; also recorded: significantly reduced
Apoptotic cell death ([1]; mAPP transfected cells): reduced
Cell viability ([1]; mAPP+ligand 1 compared to mAPP cells, P=0.181): not significantly increased
6E10 immunoreactivity (mutant APP and Aβ) (mAPP N2a cells): significantly lower; also recorded: significantly reduced
BACE1 immunoreactivity (mAPP N2a cells): significantly lower; also recorded: significantly reduced
C-terminal fragment (CTF) immunoreactivity (mAPP N2a cells): significantly lower; also recorded: significantly reduced
Mitochondrial length (N2a cells; cells treated with ligand 1 relative to untreated cells): significantly increased
Number of mitochondria (N2a cells; mAPP+ligand 1 vs mAPP cells, P=0.01): reduced

Source: US12042492B2 (priority 2020, dated 2024)
